ChEMBL document CHEMBL4825690, “Synthesis and biological evaluation of chalcone-polyamine conjugates as novel vectorized agents in colorectal and prostate cancer chemotherapy” (Eur J Med Chem, 2021)
Activity calls are given as the source filed them. No cut-off for these calls is given here.

Assays:
[1] = tested on: HT-29; experiment: Induction of cell cycle arrest in human HT-29 cells assessed as increase in p21 expression by Western blot analysis; type: functional, cell-based
[2] = tested on: DU-145; experiment: Induction of apoptosis in human DU-145 cells assessed as decrease in PARP protein expression by Western blot assay; type: functional, cell-based
[3] = tested on: DU-145; experiment: Induction of cell cycle arrest in human DU-145 cells assessed as accumulation at sub-G1 phase at IC50 incubated for 48 hrs by RNaeA/propidium iodide based flow cytometry analysis (reference value: 0 %); type: functional
[4] = tested on: HCT-116; experiment: Induction of cell cycle arrest in human HCT-116 cells assessed as reduction in CDK2 expression by Western blot analysis; type: functional, cell-based
[5] = tested on: PC-3; experiment: Induction of apoptosis in human PC-3 cells assessed as viable cells incubated for 48 hrs by annexin-V/FITC and propidium iodide staining based flow cytometry analysis (reference value: 92.95 %); type: functional
[6] = tested on: DU-145; experiment: Induction of apoptosis in human DU-145 cells assessed as viable cells incubated for 48 hrs by annexin-V/FITC and propidium iodide staining based flow cytometry analysis (reference value: 94.13 %); type: functional
[7] = tested on: HT-29; experiment: Induction of apoptosis in human HT-29 cells assessed as increase in DNA fragmentation after 48 hrs by ELISA relative to control; type: functional
[8] = tested on: DU-145; experiment: Induction of cell cycle arrest in human DU-145 cells assessed as accumulation at G1 phase at IC50 incubated for 48 hrs by […]/propidium iodide based flow cytometry analysis (reference value: 45.5 %); type: functional
[9] = tested on: DU-145; experiment: Induction of apoptosis in human DU-145 cells assessed as necrotic cells incubated for 48 hrs by annexin-V/FITC and propidium iodide staining based flow cytometry analysis (reference value: 0.04 %); type: functional
[10] = tested on: HT-29; experiment: Induction of cell cycle arrest at G1 phase in human HT-29 cells assessed as reduction in Cyclin D1 expression by Western blot analysis; type: functional, cell-based
[11] = tested on: DU-145; experiment: Induction of cell cycle arrest in human DU-145 cells assessed as accumulation at S phase at IC50 incubated for 48 hrs by RNaeA/propidium iodide based flow cytometry analysis (reference value: 38.44 %); type: functional
[12] = tested on: PC-3; experiment: Induction of apoptosis in human PC-3 cells assessed as increase in caspase-3 level by Western blot assay; type: functional, cell-based
[13] = tested on: PC-3; experiment: Induction of cell cycle arrest in human PC-3 cells assessed as decrease in cyclin B1 expression by Western blot analysis; type: functional, cell-based
[14] = tested on: HT-29; experiment: Induction of apoptosis in human HT-29 cells assessed as necrotic cells incubated for 48 hrs by annexin-V/FITC and propidium iodide staining based flow cytometry analysis (reference value: 3.52%); type: functional
[15] = tested on: DU-145; experiment: Induction of cell cycle arrest in human DU-145 cells assessed as accumulation at G2 phase at IC50 incubated for 48 hrs by […]/propidium iodide based flow cytometry analysis (reference value: 16.06 %); type: functional
[16] = tested on: HCT-116; experiment: Induction of apoptosis in human HCT-116 cells assessed as decrease in PARP protein expression by Western blot assay; type: functional, cell-based
[17] = tested on: HCT-116; experiment: Induction of cell cycle arrest in human HCT-116 cells assessed as increase in Cyclin D1 expression by Western blot analysis; type: functional, cell-based
[18] = tested on: DU-145; experiment: Induction of cell cycle arrest in human DU-145 cells assessed as effect on cyclin A2 expression by Western blot analysis; type: functional, cell-based
[19] = tested on: HT-29; experiment: Induction of cell cycle arrest at G1 phase in human HT-29 cells assessed as reduction in Cyclin E2 expression by Western blot analysis; type: functional, cell-based
[20] = tested on: DU-145; experiment: Induction of cell cycle arrest in human DU-145 cells assessed as effect on Cdc2 expression by Western blot analysis; type: functional, cell-based
[21] = tested on: HT-29; experiment: Induction of apoptosis in human HT-29 cells assessed as viable cells incubated for 48 hrs by annexin-V/FITC and propidium iodide staining based flow cytometry analysis (reference value: 83.56 %); type: functional
[22] = tested on: HCT-116; experiment: Induction of apoptosis in human HCT-116 cells assessed as viable cells incubated for 48 hrs by annexin-V/FITC and propidium iodide staining based flow cytometry analysis (reference value: […] %); type: functional
[23] = tested on: HT-29; experiment: Induction of apoptosis in human HT-29 cells assessed as increase in cleaved PARP protein expression by Western blot assay; type: functional, cell-based
[24] = tested on: DU-145; experiment: Induction of apoptosis in human DU-145 cells assessed as increase in cleaved PARP protein expression by Western blot assay; type: functional, cell-based
[25] = tested on: PC-3; experiment: Induction of apoptosis in human PC-3 cells assessed as early apoptotic cells incubated for 48 hrs by annexin-V/FITC and propidium iodide staining based flow cytometry analysis (reference value: 4.38 %); type: functional
[26] = tested on: PC-3; experiment: Induction of cell cycle arrest in human PC3 cells assessed as accumulation at G2 phase at IC50 incubated for 48 hrs by RNaeA/propidium iodide based flow cytometry analysis (reference value: 23.73 %); type: functional
[27] = tested on: HCT-116; experiment: Induction of apoptosis in human HCT-116 cells assessed as decrease in pro-caspase-3 expression by Western blot assay; type: functional, cell-based
[28] = tested on: HT-29; experiment: Induction of apoptosis in human HT-29 cells assessed as early apoptotic cells incubated for 48 hrs by annexin-V/FITC and propidium iodide staining based flow cytometry analysis (reference value: 3.37%); type: functional
[29] = tested on: HCT-116; experiment: Induction of cell cycle arrest in human HCT-116 cells assessed as accumulation at G1 phase at IC50 incubated for 48 hrs by RNaeA/propidium iodide based flow cytometry analysis (reference value: 51.56 %); type: functional
[30] = tested on: HCT-116; experiment: Induction of apoptosis in human HCT-116 cells assessed as early apoptotic cells incubated for 48 hrs by annexin-V/FITC and propidium iodide staining based flow cytometry analysis (reference value: 5.21 %); type: functional
[31] = tested on: PC-3; experiment: Induction of cell cycle arrest in human PC3 cells assessed as accumulation at S phase at IC50 incubated for 48 hrs by RNaeA/propidium iodide based flow cytometry analysis (reference value: 33.66 %); type: functional
[32] = tested on: HCT-116; experiment: Induction of apoptosis in human HCT-116 cells assessed as increase in caspase-3 level by Western blot assay; type: functional, cell-based
[33] = tested on: DU-145; experiment: Induction of apoptosis in human DU-145 cells assessed as increase in caspase-3 level by Western blot assay; type: functional, cell-based
[34] = tested on: HCT-116; experiment: Induction of apoptosis in human HCT-116 cells assessed as increase in DNA fragmentation after 48 hrs by ELISA relative to control; type: functional
[35] = tested on: HT-29; experiment: Induction of cell cycle arrest in human HT-29 cells assessed as accumulation at G2 phase at IC50 incubated for 48 hrs by RNaeA/propidium iodide based flow cytometry analysis (reference value: 13..16 %); type: functional
[36] = tested on: PC-3; experiment: Induction of cell cycle arrest in human PC-3 cells assessed as decrease in Cdc2 expression by Western blot analysis; type: functional, cell-based
[37] = tested on: DU-145; experiment: Induction of cell cycle arrest in human DU-145 cells assessed as effect on cyclin B1 expression by Western blot analysis; type: functional, cell-based
[38] = tested on: HCT-116; experiment: Induction of cell cycle arrest in human HCT-116 cells assessed as reduction in CDK6 expression by Western blot analysis; type: functional, cell-based
[39] = tested on: HCT-116; experiment: Induction of apoptosis in human HCT-116 cells assessed as necrotic cells incubated for 48 hrs by annexin-V/FITC and propidium iodide staining based flow cytometry analysis (reference value: 7.22 %); type: functional
[40] = tested on: HT-29; experiment: Induction of cell cycle arrest at G1 phase in human HT-29 cells assessed as reduction in CDK4 expression by Western blot analysis; type: functional, cell-based

For COc1cc(C(=O)/C=C/c2ccc(OCCCNCCCNCCCCN)cc2)cc(OC)c1OC, the Activity [1] was “Active”, the Activity [2] was “Active” and the Activity [3] was 9.28%. For the same molecule, the Activity [4] was “Active”, the Activity [5] was 50.47% and the Activity [6] was 38.96%. The “fold change (FC)” value [7] was 2.07, the Activity [8] was 28.11% and the Activity [9] was 0.05%. The Activity [10] was “Active”, the Activity [11] was 37.34% and the Activity [12] was “Active”. The Activity [13] was “Active”, the Activity [14] was 0.6% and the Activity [15] was 34.55%. The Activity [16] was “Active”, the Activity [17] was “Active” and the Activity [18] was “inactive”. For the same molecule, the Activity [19] was “Active”, the Activity [20] was “inactive” and the Activity [21] was 56.67%. The Activity [22] was 52.13%, the Activity [23] was “Active” and the Activity [24] was “Active”. For the same molecule, the Activity [25] was 34.25%, the Activity [26] was 58.17% and the Activity [27] was “Active”. For the same molecule, the Activity [28] was 11.04%, the Activity [29] was 65.67% and the Activity [30] was 22.92%. The Activity [31] was 22.17%, the Activity [32] was “Active” and the Activity [33] was “Active”. For the same molecule, the “fold change (FC)” value [34] was 4.72, the Activity [35] was 13.32% and the Activity [36] was “Active”. The Activity [37] was “inactive”, the Activity [38] was “Active” and the Activity [39] was 3.35%. For the same molecule, the Activity [40] was “Active”.
